Test results as given in patent publication US11890295B2, “Helicobacter pylori eradication method including step for orally administering composition including complex of non-absorbable antibiotic and clay mineral to subject” (KOREA INSTITUTE OF GEOSCIENCE AND MINERAL RESOURCES, priority 2018, dated 2024).

What was measured:
[1] = system: clarithromycin-resistant strain; experiment: MIC of clarithromycin for the clarithromycin-resistant strain; type: cell-based; conditions: Helicobacter pylori
[2] = system: Clarithromycin-resistant Helicobacter pylori bacteria; experiment: in vitro eradication activity on resistant strain, disk on medium; type: cell-based; conditions: twice repeated tests
Excerpt: Clarithromycin-resistant Helicobacter pylori bacteria were applied on a medium (red), and a sample was made in the form of a disk and placed on the medium to measure an eradicating effect. At this time, if the red color disappeared around the disk, it means that there was the eradicating effect.

[3] = system: H. pylori, 187 culture-positive clinical strains; experiment: antibiotic resistant rate from in vitro MIC on clinical strains; type: cell-based, Helicobacter pylori; conditions: based on MIC 1 μg/mL
Method: In virto MIC for non-absorbable antibiotic candidates (gentamicin, netilmicin, tobramycin, and amikacin) to be used as novel therapeutic agents was measured by making complexes with antibiotics (amoxicillin, clarithromycin, metronidazole, levofloxacin, and tetracyclin) that were actually used for Helicobacter eradicating treatment in clinical trials and smectite, and MIC50 and MIC90 were identified. For this end, 187 culture-positive clinical strains obtained from 1,265 patient specimens were used.

Molecule	MIC [1] [µg/mL]	clear zone around disk (eradication activity) [2]	resistant rate of H. pylori [3] [%]
CC[C@H]1OC(=O)[C@H](C)[C@@H](O[C@H]2C[C@@](C)(OC)[C@@H](O)[C@H](C)O2)[C@H](C)[C@@H](O[C@@H]2O[C@H](C)C[C@H](N(C)C)[C@H]2O)[C@](C)(OC)C[C@@H](C)C(=O)[C@H](C)[C@@H](O)[C@]1(C)O [clarithromycin]	48	no clear zone	–
gentamicin	–	–	2.78
